The source made the active and inactive calls. The calls are words filed in the database; no cut-off is given here.
Columns and labels:
A549 = assay: Antiproliferative activity against human A549 cells assessed as cell growth inhibition incubated for 72 hrs by alamar blue dye based assay; assay type: functional
HCT-116 = assay: Antiproliferative activity against human HCT-116 cells assessed as cell growth inhibition incubated for 72 hrs by alamar blue dye based assay; assay type: functional
PC-3 = assay: Antiproliferative activity against human PC-3 cells assessed as cell growth inhibition incubated for 72 hrs by alamar blue dye based assay; assay type: functional
A498 = assay: Antiproliferative activity against human A498 cells assessed as cell growth inhibition incubated for 72 hrs by alamar blue dye based assay; assay type: functional
SF-539 = assay: Antiproliferative activity against human SF-539 cells assessed as cell growth inhibition incubated for 72 hrs by alamar blue dye based assay; assay type: functional
Histone deacetylase 1 = Histone deacetylase 1 (Homo sapiens, UniProt Q13547); assay: Inhibition of HDAC1 (unknown origin) expressed in baculovirus infected in Sf9 cells using RHKKAc as substrate at 500 nM preincubated for 5 to 10 mins followed by substrate addition measured after 2 hrs by fluorescence based assay relative to control; conditions: time 5-130 min
Chain of Histone deacetylase 1 (Q13547 whole entry): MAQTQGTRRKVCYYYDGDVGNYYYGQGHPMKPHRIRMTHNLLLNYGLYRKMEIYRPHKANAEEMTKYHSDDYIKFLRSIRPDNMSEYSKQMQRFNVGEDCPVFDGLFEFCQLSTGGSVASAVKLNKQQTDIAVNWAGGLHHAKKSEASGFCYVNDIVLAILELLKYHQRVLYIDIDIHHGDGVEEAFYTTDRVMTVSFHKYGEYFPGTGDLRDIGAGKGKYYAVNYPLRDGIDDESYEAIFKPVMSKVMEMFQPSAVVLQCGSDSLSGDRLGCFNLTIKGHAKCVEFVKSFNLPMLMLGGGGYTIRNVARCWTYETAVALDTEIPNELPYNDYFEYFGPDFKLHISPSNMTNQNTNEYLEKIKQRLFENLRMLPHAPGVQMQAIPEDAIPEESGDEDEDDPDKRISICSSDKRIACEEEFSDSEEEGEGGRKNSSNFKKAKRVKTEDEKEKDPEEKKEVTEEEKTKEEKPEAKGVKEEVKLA

HL-60(TB) = assay: Antiproliferative activity against human HL-60(TB) cells assessed as cell growth inhibition incubated for 72 hrs by alamar blue dye based assay; assay type: functional
HOP-92 = assay: Antiproliferative activity against human HOP-92 cells assessed as cell growth inhibition incubated for 72 hrs by alamar blue dye based assay; assay type: functional
SN12C = assay: Antiproliferative activity against human SN12C cells assessed as cell growth inhibition incubated for 72 hrs by alamar blue dye based assay; assay type: functional
MDA-MB-231 = assay: Antiproliferative activity against human MDA-MB-231 cells assessed as cell growth inhibition incubated for 72 hrs by alamar blue dye based assay; assay type: functional
K562 = assay: Antiproliferative activity against human K562 cells assessed as cell growth inhibition incubated for 72 hrs by alamar blue dye based assay; assay type: functional
SK-MEL-2 = assay: Antiproliferative activity against human SK-MEL-2 cells assessed as cell growth inhibition incubated for 72 hrs by alamar blue dye based assay; assay type: functional
KM12 = assay: Antiproliferative activity against human KM12 cells assessed as cell growth inhibition incubated for 72 hrs by alamar blue dye based assay; assay type: functional
OVCAR-5 = assay: Antiproliferative activity against human OVCAR-5 cells assessed as cell growth inhibition incubated for 72 hrs by alamar blue dye based assay; assay type: functional
CAKI-1 = assay: Antiproliferative activity against human CAKI-1 cells assessed as cell growth inhibition incubated for 72 hrs by alamar blue dye based assay; assay type: functional
NCI-H522 = assay: Antiproliferative activity against human NCI-H522 cells assessed as cell growth inhibition incubated for 72 hrs by alamar blue dye based assay; assay type: functional
[1] = Half life in Sprague-Dawley rat at 0.2 mg/kg, iv by LC-MS/MS analysis; assay type: ADME, organism-based; conditions: in vivo
[2] = target: T1, Class 1 histone deacetylase (Homo sapiens) (UniProt Q13547+O15379+Q92769+Q9BY41); assay: Inhibition of class 1 HDAC in human RPMI-8226 cells assessed as increase in alpha-tubulin acetylation at 1 to 10 uM incubated for 24 hrs by Western blot analysis; assay type: cell-based; conditions: dose 1-10 µM
T1 sequence (O15379 whole entry, looked up): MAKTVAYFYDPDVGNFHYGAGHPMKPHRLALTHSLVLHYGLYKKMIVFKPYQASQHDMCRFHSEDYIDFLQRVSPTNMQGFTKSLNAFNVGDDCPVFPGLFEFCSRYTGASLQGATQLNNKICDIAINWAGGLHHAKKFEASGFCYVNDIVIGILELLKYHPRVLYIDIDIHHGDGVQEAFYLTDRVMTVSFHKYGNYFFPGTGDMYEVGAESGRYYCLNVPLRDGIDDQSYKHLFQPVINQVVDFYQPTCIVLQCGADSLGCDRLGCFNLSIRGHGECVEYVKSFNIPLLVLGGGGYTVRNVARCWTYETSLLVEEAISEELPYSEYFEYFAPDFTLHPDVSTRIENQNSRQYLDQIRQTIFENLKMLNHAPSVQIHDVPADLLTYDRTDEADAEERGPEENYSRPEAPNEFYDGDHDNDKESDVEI
T1 sequence (Q13547 whole entry, looked up): as the sequence (Q13547 whole entry) above
T1 sequence (Q92769 whole entry, looked up): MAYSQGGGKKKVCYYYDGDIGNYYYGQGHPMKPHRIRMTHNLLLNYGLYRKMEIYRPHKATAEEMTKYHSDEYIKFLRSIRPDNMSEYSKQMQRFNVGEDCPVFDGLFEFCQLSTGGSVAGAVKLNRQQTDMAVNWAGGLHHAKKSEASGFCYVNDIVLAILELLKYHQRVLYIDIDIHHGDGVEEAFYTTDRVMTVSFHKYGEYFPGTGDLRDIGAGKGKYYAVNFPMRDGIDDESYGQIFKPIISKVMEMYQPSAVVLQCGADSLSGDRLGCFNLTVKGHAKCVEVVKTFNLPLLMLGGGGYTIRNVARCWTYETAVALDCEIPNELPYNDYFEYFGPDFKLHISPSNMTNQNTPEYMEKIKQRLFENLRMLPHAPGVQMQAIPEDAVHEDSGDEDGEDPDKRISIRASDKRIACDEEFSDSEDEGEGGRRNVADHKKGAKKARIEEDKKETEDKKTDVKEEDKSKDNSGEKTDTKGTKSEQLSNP
T1 sequence (Q9BY41 whole entry, looked up): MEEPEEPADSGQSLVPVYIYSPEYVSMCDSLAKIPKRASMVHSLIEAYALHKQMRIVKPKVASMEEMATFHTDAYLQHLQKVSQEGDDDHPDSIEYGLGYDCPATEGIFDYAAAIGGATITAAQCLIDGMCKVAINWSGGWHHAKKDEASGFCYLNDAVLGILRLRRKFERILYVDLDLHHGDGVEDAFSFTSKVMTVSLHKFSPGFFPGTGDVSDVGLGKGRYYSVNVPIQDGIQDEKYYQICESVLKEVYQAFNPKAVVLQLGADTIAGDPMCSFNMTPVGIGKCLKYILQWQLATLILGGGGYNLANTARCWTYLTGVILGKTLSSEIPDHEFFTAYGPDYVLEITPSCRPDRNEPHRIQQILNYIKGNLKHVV

Histone deacetylase 3 = Histone deacetylase 3 (Homo sapiens, UniProt O15379); assay: Inhibition of HDAC3 (unknown origin) expressed in baculovirus infected in Sf9 cells using RHKKAc as substrate preincubated for 5 to 10 mins followed by substrate addition measured after 2 hrs by fluorescence based assay
Chain of Histone deacetylase 3 (O15379 whole entry): as the sequence (O15379 whole entry, looked up) above

[3] = Tmax in Sprague-Dawley rat at 3 mg/kg, po by LC-MS/MS analysis; assay type: ADME, organism-based; conditions: in vivo
Histone deacetylase 11 = Histone deacetylase 11 (Homo sapiens, UniProt Q96DB2); assay: Inhibition of HDAC11 (unknown origin) expressed in baculovirus infected in Sf9 cells using RHKKAc as substrate preincubated for 5 to 10 mins followed by substrate addition measured after 2 hrs by fluorescence based assay
Chain of Histone deacetylase 11 (Q96DB2 whole entry): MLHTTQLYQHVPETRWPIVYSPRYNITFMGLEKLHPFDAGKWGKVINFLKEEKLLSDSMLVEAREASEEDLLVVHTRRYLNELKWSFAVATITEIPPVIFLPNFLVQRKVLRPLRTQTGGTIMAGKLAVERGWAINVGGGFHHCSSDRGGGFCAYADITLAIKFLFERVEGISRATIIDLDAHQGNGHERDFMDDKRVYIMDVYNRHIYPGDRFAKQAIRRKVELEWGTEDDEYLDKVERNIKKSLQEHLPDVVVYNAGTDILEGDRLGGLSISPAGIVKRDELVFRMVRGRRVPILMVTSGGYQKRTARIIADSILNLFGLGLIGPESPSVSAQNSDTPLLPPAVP

[4] = target: T1, Class 1 histone deacetylase (Homo sapiens); assay: Inhibition of class 1 HDAC in human RPMI-8226 cells assessed as increase in histone H3 acetylation at 1 to 10 uM incubated for 24 hrs by Western blot analysis; assay type: cell-based; conditions: dose 1-10 µM
[5] = target: T2, Protein deacetylase HDAC6 (Homo sapiens) (UniProt Q9UBN7); assay: Inhibition of HDAC6 in human RPMI-8226 cells assessed as increase in alpha-tubulin acetylation at 1 to 10 uM incubated for 24 hrs by Western blot analysis; assay type: cell-based; conditions: dose 1-10 µM
T2 sequence (whole entry): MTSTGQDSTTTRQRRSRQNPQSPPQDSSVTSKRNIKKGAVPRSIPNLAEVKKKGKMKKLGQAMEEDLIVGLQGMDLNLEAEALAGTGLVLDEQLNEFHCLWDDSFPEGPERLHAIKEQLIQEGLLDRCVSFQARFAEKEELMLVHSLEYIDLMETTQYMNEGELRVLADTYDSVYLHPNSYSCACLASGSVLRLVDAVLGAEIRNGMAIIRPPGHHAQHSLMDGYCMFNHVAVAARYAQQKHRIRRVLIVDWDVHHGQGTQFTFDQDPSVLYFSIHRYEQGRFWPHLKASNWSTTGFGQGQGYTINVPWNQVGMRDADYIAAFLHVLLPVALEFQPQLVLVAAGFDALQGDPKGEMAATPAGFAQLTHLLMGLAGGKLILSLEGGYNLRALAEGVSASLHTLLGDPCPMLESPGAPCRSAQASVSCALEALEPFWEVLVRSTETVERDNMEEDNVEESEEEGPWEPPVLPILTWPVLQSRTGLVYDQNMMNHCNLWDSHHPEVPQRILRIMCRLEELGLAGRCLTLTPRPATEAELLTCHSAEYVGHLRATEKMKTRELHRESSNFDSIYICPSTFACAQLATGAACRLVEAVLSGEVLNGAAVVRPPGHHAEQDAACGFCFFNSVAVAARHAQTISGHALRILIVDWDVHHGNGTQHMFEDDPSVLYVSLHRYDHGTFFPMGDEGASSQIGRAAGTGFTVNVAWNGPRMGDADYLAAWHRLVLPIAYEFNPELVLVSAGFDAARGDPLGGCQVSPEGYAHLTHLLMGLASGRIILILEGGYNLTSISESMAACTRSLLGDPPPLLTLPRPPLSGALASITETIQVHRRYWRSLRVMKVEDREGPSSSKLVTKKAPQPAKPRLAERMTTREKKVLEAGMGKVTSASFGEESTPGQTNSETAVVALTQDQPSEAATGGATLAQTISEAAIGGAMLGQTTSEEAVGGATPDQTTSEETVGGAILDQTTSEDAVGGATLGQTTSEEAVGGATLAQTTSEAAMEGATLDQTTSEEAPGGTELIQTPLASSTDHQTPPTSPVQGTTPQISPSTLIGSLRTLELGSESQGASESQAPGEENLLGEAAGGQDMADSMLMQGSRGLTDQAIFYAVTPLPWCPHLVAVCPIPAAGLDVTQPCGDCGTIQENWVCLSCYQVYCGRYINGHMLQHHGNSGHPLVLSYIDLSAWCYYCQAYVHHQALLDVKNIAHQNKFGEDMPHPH

[6] = AUC (0 to infinity) in Sprague-Dawley rat at 0.2 mg/kg, iv by LC-MS/MS analysis; assay type: ADME, organism-based; conditions: in vivo

Structure (SMILES)	GI50 (A549) [nM]	GI50 (HCT-116) [nM]	GI50 (PC-3) [nM]	GI50 (A498) [nM]	GI50 (SF-539) [nM]	GI50 (HL-60(TB)) [nM]	GI50 (HOP-92) [nM]	GI50 (SN12C) [nM]	GI50 (MDA-MB-231) [nM]	GI50 (K562) [nM]	GI50 (SK-MEL-2) [nM]	GI50 (KM12) [nM]	GI50 (OVCAR-5) [nM]	GI50 (CAKI-1) [nM]	GI50 (NCI-H522) [nM]	further results
COc1ccc(CN2[C@@H](C(=O)NCc3ccc(C(=O)NO)cc3)Cc3c([nH]c4ccccc34)[C@@H]2C2CC2)cc1	3540	2080	3120	2770	2480	2730	2620	3860	2430	1670	4110	3510	1870	2400	965	inhibition (Histone deacetylase 1): 83.4%
O=C(NO)c1ccc(CNC(=O)[C@H]2Cc3c([nH]c4ccccc34)[C@H](c3ccc(Cl)cc3)N2)cc1	3970	609	1760	2060	1140	706	930	2410	887	720	2770	2360	456	2330	584	half-life [1]: 3.38 h; inhibition [2]: Active; IC50 (Histone deacetylase 3): 103 nM; Tmax [3]: 1.54 h; IC50 (Histone deacetylase 11): 2100 nM; inhibition [4]: Active; inhibition [5]: Active; AUC(0-inf) [6]: 1.52 µM·h

— ChEMBL document CHEMBL5625247, “Tetrahydro-β-carboline derivatives as potent histone deacetylase 6 inhibitors with broad-spectrum antiproliferative activity” (Eur J Med Chem, 2023)
